{"source": "patent US12264299B2", "about": "“Detergent composition” (SYMRISE AG, priority 2018, dated 2025)", "tested_on": "Corynebacterium xerosis ATCC373 and Staphylococcus aureus ATCC6538", "assay": "Microbial counts on inoculated synthetic fabric after washing and drying", "type": "cell-based", "details": "comparison of groups, 24 and 72 hours results", "description": "The objective of the following examples and comparison examples has been to evaluate bactericide and bacteriostatic performance of a specific active composition (SymClariol, Symrise AG) at 0.25% and 1% in a regular fabric softener composition.\nInoculate Corynebacterium xerosis ATCC373 and Staphylococcus aureus ATCC6538 in white synthetic fabric 89% polyester and 11% elastane. SymClariol stands for 1,2-decanediol and is a commercially available product distributed by Symrise AG.\nCut the fabric in pieces of 10 cm×10 cm (100 cm^2) to be inoculate.\nIt was used: • Corynebacterium xerosis ATCC373 strain in saline solution 0.85% • Staphylococcus aureus ATCC6538 strain in saline solution 0.85% • Sterile Saline solution to wet the fabric • Liquid laundry detergent Tixan Ipê batch 065091 16:30 manufactured in March, 2016 and expiration date March, 2018 • Regular Fabric Softener+Active 1 (SymClariol at 0.25%) • Regular Fabric Softener+Active 2 (SymClariol at 1%) • Regular Fabric Softener Placebo • Wash machine Electrolux\nAll materials were analyzed before the beginning of the tests and had <10 CFU/g for bacteria and fungi and absence of pathogens. An initial wash of the tissue was carried out with the purpose of reducing the initial microbiological count and subsequent counting for a reduction confirmation of 10 CFU/g and absence of pathogens. […]", "data": [{"smiles": "CCCCCCCCC(O)CO", "note": "(stereo not shown) [SymClariol, 1,2-decanediol]", "values": [{"measurement": "bactericide and bacteriostatic performance (in words)", "value": "improved the bactericide and bacteriostatic performance"}]}]}
